Test results: US20030162759A1, “Aldosterone blocker therapy to prevent or treat inflammation-related disorders” (priority 2000, published 2003)
Values joined by “and” are separate entries in the source; they are usually repeats but may differ in a detail not shown here. Equal entries are not always repeated.

Tests used:
Type in all cases: in vivo, rat
[1] = test system: angiotensin II infused rats; test: Assay A angiotensin II infusion model: systolic blood pressure by tail-cuff; conditions: Wistar rats, 1% NaCl, angiotensin II 25 ng/min sc; eplerenone 100 mpk; 4 weeks
Description: Assay A: In Vivo Angiotensin II Infusion Model
Male Wistar rats (n—50, 10/group; BW=200 g)
2. Angiotensin 11 (25 ng/min, sc via aizet minipump)
SBP measured by tail-cuff every week

interstitial collagen = test: Assay C: interstitial collagen volume fraction (Picrosirius Red image analysis); conditions: for Interstitial Collagen Volume Fraction: Table 9.14, 7-day protocol; for Collagen Volume Fraction (%), Mean: group mean; for ICVF (interstitial collagen volume fraction): eplerenone 100 mg/kg/day
Description: The procedure of Assay B was expanded upon in a further study. […] Myocardial tissue from animals in each treatment group was examined after 7, 14, or 30 days of treatment. […] Lesions were preceded by the expression and progressive upregulation of proinflammatory molecules. […] Prior to surgery the animals were individually weighed and placed in one of the following groups: […] Potassium chloride supplementation was added to the saline solution in order to prevent the potential hypokalemia associated with aldosterone excess. […] Louis, Mo.) was inserted subcutaneously at the nape of the neck. Aldosterone was administered at a dose of […]. […] Animals were sacrificed from each group (n=8-13) after 7, 14, or 30 days of treatment. The equatorial regions of the heart were routinely processed into paraffin with an automated tissue processor (Hypercenter XP, Shandon/Lipshaw Inc., Pittsburgh, Pa.) and embedded into fresh paraffin apical side down (Shandon Embedding Center, Shandon/Lipshaw Inc.). […] Ten m sections were stained with the collagen specific stain, Picrosirius Red F3BA (Saturated Picric Acid (Sigma Chemical, St. […] Waterbury, Conn.) (6). Mounted tissues were hydrated with water. […] Slides were coverslipped with #1 cover glass using Permount Histological Mounting Media (Fisher Scientific). Two slides mounted with 5 m sections were cut for each animal. One slide was processed for H&E staining and one for Periodic Acid Schiff (PAS) staining. The H&E and PAS were used for pathological scoring of the hearts. Picrosirius Red F3BA stained slides were used to quantify interstitial collagen with a Videometric 150 Image Analysis System (Oncor Inc., Gaitherburg, Md.). […] Garden City, N.Y.) attached to a Nikon Optiphot microscope (Nikon Inc.). A Toshiba 3 CCD Color Video Camera (Model#[…] Corp. Japan) relayed the images in RGB format from the microscope to a 386 computer with a […] video board. The […] video board/[…] software application (Oncor Inc.) converted RGB images to HIS (Hue, Intensity, Saturation) format for display and analysis on a Sony Trinitron Color Video Monitor (Model#PVM-1342Q, Sony Corp, Tokyo, Japan) at a magnification of 305×. […] The […] application then measured only pixels which fell into thresholding limits. The system was calibrated with a micrometer scale (EM Sciences, FT. Washington, Pa. 19034), which allowed data to be expressed in mm^2 or m^2.

[2] = test system: Atrial natriuretic factor (ANP); test: Assay C: ANP mRNA in left ventricle (TaqMan)
Description: The procedure of Assay B was expanded upon in a further study. […] Myocardial tissue from animals in each treatment group was examined after 7, 14, or 30 days of treatment.
Potassium chloride supplementation was added to the saline solution in order to prevent the potential hypokalemia associated with aldosterone excess.
At the time of the surgery, an Alzet 2002 osmotic minipump (Alza Corp., Palo Alto, Calif.) containing either vehicle (9% ethanol/87% propylene glycol/4% dH2O) or 1.0 mg/mL d-aldosterone (Sigma Chemical, St. Louis, Mo.) was inserted subcutaneously at the nape of the neck. Aldosterone was administered at a dose of 0.75 g/hour. […] Animals were sacrificed from each group (n=8-13) after 7, 14, or 30 days of treatment. […]
The fluorogenic 5′-nuclease assay (TaqMan PCR) using Applied Biosystems' 7700 Sequence Detection System (Applied Biosystems, Foster City, Calif.) allowed for real time detection/quantitation of a specific gene by monitoring the increase in fluorescence of a gene-specific, dye-labeled oligonucleotide probe. […] When the probe was annealed to the target gene, fluorescence of 6FAM was prevented by the close proximity of TAMRA. The exonuclease activity of Taq polymerase released the dyes from the oligonucleotide probe by displacing the probe from the target sequence resulting in fluorescence excitation in direct proportion to the amount of target message present. […]

Structure (SMILES) | Systolic Blood Pressure [1] | Interstitial Collagen Volume Fraction (interstitial collagen; group Mean) | Interstitial Collagen Volume Fraction (interstitial collagen; individual rats, listed as Aldosterone + salt) | Collagen Volume Fraction (%), Mean (interstitial collagen; 14 days of treatment) | Collagen Volume Fraction (%), Mean (interstitial collagen; 30 days of treatment) | ICVF (interstitial collagen volume fraction) (interstitial collagen; mean ± SEM after 7 days of treatment) | ICVF (interstitial collagen volume fraction) (interstitial collagen; mean ± SEM after 14 days of treatment) | ICVF (interstitial collagen volume fraction) (interstitial collagen; mean ± SEM after 30 days of treatment) | ANP mRNA upregulation ([2]; after 30 days of treatment) | ANP mRNA ([2]; mean ± SEM after 30 days of treatment, relative to cyclophilin expression, eplerenone 100 mg/kg/day)
C[C@]12CCC(=O)C=C1CC[C@@H]1[C@@H]2[C@@H](O)C[C@]2(C=O)[C@@H](C(=O)CO)CC[C@@H]12 [aldosterone] | increased blood pressure | 5.6% | 3.2% and 6.5% (2×) and 6.1% and 6.9% and 4.4% and 3.1% | 5.1% | 7.9% | 5.6 ± 0.6% | 5.1 ± 0.5% | 7.9 ± 1.0% | – | –
COC(=O)[C@@H]1CC2=CC(=O)CC[C@]2(C)[C@@]23O[C@@H]2C[C@@]2(C)[C@@H](CC[C@@]24CCC(=O)O4)[C@H]13 [eplerenone, Pregn-4-ene-7,21-dicarboxylic acid, 9,11-epoxy-17-hydroxy-3-oxo-, γ-lactone, methyl ester, (7α, 11α, 17β) -] | Neither eplerenone nor adrenalectomy reduced blood pressure | – | – | 4.5% | 6.2% | – | – | – | significantly reduced | 9.20 ± 2.44 AU
